In patent US10118916B2, “Modulators of cystic fibrosis transmembrane conductance regulator protein” (AbbVie S.à.r.l., priority 2016, dated 2018):

Molecular target: T1, F508delCFTR (Homo sapiens, UniProt P13569, DEL508-508)
T1 construct: expressed in transfected cells; host or cells: CFBE41o- (human lung derived epithelial cell line), doxycycline-inducible
Assay: Cell Surface Expression-Horse Radish Peroxidase (CSE-HRP) assay
Assay type: cell-based
Details: CFBE41o-F508delCFTR-HRP cells; for EC50: F508delCFTR cell surface expression, luminescence, 18-24 hours at 33° C., highest concentration 20 μM; for Maximum % activity: maximum at any tested concentration, normalized to on-plate positive control (3 μM)
Excerpt: Cell Surface Expression-Horse Radish Peroxidase (CSE-HRP) Assay:
A cellular assay for measuring the F508delCFTR cell surface expression after correction with test compounds was developed in human lung derived epithelial cell line (CFBE41o-) (Veit G et al, (2012) Mol Biol Cell. 23(21): 4188-4202). This was achieved by expressing the F508delCFTR mutation along with a horseradish peroxidase (HRP) in the fourth exofacial loop and then measuring the HRP activity using luminescence readout from these cells, CFBE41o-F508delCFTR-HRP, that were incubated overnight with the test corrector compounds. Briefly, for this primary assay, the CFBE41o-F508delCFTR-HRP cells were plated in 384-well plates (Greiner Bio-one; Cat 781080) at 4,000 cells/well along with 0.5 μg/mL doxycycline to induce the F508delCFTR-HRP expression and further incubated at 37° C., 5% CO2 for 72 hours. The test compounds were then added at the required concentrations and further incubated for 18-24 hours at 33° C. The highest concentration tested was 20 μM with an 8-point concentration response curve using a 3-fold dilution. Three replicate plates were run to determine one EC50. All plates contained negative controls (dimethyl sulfoxide, DMSO) and positive controls (3 μM of 3-[(2R,4R)-4-({[1-(2,2-difluoro-1,3-benzodioxol-5-yl)cyclopropyl]carbonyl}amino)-7-methoxy-3,4-dihydro-2H-chromen-2-yl]benzoic acid) as well as on-plate concentration response of the positive control. Post incubation, the plates were washed 5× times with Dulbecco's phosphate buffered saline (DPBS), followed by the addition of the HRP substrate, luminol (50 μL), and measuring the HRP activity using luminescence readout on EnVision® Multilabel Plate Reader (Perkin Elmer; product number 2104-0010). The raw counts from the experiment are analyzed using Accelrys® Assay Explorer v3.3.
Z′ greater than 0.5 was used as passing quality control criteria for the plates.
The Z′ is defined as: 1−[3*SDPositive Control+3*SDNegative Control/Absolute(MeanPositive Control−MeanNegative Control)] wherein “SD” is standard deviation.
The % activity measured at each of the 8 test concentrations of the test compound was normalized to the on-plate positive control using the following formula: % activity=[(test compound response−DMSO response)/(positive control response−DMSO response)]*100
The maximum % activity achieved for the test compound at any tested concentration is presented in Table 1 along with the EC50 calculated using the following general sigmoidal curve with variable Hill slope equation (described as Model 42 in the Accelrys® Assay Explorer v3.3 software): y=(a−d)/(1+(x/c)^b)+d
General sigmoidal curve with concentration, response, top, bottom, EC50 and Hill slope.
This model describes a sigmoidal curve with an adjustable baseline, a. The equation can be used to fit curves where response is either increasing or decreasing with respect to the independent variable, “x”. • “x” is a concentration of drug under test. • “y” is the response. • “a” is the maximum response, and “d” is the minimum response • “c” is the inflection point (EC50) for the curve. That is, “y” is halfway between the lower and upper asymptotes when x=c. • “b” is the slope-factor or Hill coefficient. The sign of b is positive when the response increases with increasing dose and is negative when the response decreases with increasing dose (inhibition).

T1 sequence (P13569 with tags, fused parts or gaps DEL508-508): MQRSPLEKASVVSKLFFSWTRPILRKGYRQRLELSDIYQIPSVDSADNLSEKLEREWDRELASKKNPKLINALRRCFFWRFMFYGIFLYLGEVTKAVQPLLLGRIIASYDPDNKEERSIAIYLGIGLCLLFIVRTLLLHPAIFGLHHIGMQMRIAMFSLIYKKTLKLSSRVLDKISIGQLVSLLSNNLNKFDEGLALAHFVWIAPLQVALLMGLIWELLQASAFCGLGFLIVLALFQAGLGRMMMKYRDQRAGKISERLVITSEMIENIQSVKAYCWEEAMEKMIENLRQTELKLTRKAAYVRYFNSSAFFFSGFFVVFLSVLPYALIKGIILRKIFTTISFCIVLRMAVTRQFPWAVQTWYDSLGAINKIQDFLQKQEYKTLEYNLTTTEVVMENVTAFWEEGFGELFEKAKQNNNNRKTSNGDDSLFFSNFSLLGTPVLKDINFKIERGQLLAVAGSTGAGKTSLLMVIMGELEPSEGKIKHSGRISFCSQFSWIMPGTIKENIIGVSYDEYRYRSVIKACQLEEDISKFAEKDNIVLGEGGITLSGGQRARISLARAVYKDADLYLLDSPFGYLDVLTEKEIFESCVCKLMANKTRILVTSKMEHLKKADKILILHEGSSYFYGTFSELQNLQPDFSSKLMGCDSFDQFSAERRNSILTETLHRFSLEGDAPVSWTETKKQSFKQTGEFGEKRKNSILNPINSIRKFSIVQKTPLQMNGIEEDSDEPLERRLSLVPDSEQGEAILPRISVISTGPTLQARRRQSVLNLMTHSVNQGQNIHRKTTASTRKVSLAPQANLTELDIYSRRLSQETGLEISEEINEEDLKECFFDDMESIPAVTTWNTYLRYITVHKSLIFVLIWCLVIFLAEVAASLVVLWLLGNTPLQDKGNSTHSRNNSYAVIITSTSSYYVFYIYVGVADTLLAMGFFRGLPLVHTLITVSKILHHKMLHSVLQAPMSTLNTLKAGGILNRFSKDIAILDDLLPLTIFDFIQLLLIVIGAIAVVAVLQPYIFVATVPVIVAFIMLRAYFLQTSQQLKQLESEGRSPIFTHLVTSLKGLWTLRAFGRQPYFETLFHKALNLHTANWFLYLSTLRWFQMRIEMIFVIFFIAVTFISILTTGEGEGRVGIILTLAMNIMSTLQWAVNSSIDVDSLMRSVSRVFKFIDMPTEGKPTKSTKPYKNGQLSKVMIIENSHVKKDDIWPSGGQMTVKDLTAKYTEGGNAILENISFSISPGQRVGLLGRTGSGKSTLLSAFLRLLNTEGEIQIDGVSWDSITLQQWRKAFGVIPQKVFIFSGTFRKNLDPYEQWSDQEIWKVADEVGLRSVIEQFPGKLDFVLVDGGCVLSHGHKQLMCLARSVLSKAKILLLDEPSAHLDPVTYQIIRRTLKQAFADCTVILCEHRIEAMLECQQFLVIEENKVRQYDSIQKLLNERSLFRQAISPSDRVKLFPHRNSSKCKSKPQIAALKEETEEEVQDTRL

SMILES | EC50 [nM] | Maximum % activity [%]
COc1ccc2c(c1)O[C@@H](c1cccc(C(=O)O)c1)C[C@H]2NC(=O)C(C)(C)Oc1ccc(Cl)cc1 [Example 45, 3-{(2R,4R)-4-[2-(4-chlorophenoxy)-2-methylpropanamido]-7-methoxy-3,4-dihydro-2H-1-benzopyran-2-yl}benzoic acid] | > 20000 | 15.3
Cc1ccccc1C(C)(C)C(=O)N[C@@H]1C[C@H](c2cccc(C(=O)O)c2)Oc2ccccc21 [Example 49, 3-{(2R,4R)-4-[2-methyl-2-(2-methylphenyl)propanamido]-3,4-dihydro-2H-1-benzopyran-2-yl}benzoic acid] | > 20000 | 3.5
CC(C)(C(=O)N[C@@H]1C[C@H](c2cccc(C(=O)O)c2)Oc2ccccc21)c1ccc(C(F)(F)F)cc1 [Example 51, 3-[(2R,4R)-4-{2-methyl-2-[4-(trifluoromethyl)phenyl]propanamido}-3,4-dihydro-2H-1-benzopyran-2-yl]benzoic acid] | 2030 | 57.9
CC(C)(C(=O)N[C@@H]1C[C@H](c2cccc(C(=O)O)c2)Oc2ccccc21)c1ccc(Cl)cc1Cl [Example 52, 3-{(2R,4R)-4-[2-(2,4-dichlorophenyl)-2-methylpropanamido]-3,4-dihydro-2H-1-benzopyran-2-yl}benzoic acid] | > 20000 | 1.8
COC(=O)c1cccc([C@H]2C[C@@H](NC(=O)C3(C)CCc4ccc(OC(F)(F)F)cc43)c3ccc(OC)cc3O2)c1 (stereo partly drawn) [Example 57, methyl 3-[(2R,4R)-7-methoxy-4-{[1-methyl-6-(trifluoromethoxy)-2,3-dihydro-1H-indene-1-carbonyl]amino}-3,4-dihydro-2H-1-benzopyran-2-yl]benzoate] | > 20000 | 2.3
COc1ccc2c(c1)O[C@@H](c1cccc(C(=O)O)c1)C[C@H]2NC(=O)C1(C)CCc2ccc(OC(F)(F)F)cc21 (stereo partly drawn) [Example 58, 3-[(2R,4R)-7-methoxy-4-{[1-methyl-6-(trifluoromethoxy)-2,3-dihydro-1H-indene-1-carbonyl]amino}-3,4-dihydro-2H-1-benzopyran-2-yl]benzoic acid] | 2220 | 20.4
COC(=O)c1ccc([C@H]2C[C@@H](NC(=O)[C@@]3(C)CCc4cc(Cl)ccc4O3)c3ccccc3O2)cc1 [Example 59, methyl 4-[(2R,4R)-4-{[(2R)-6-chloro-2-methyl-3,4-dihydro-2H-1-benzopyran-2-carbonyl]amino}-3,4-dihydro-2H-1-benzopyran-2-yl]benzoate] | > 20000 | 1.8
C[C@]1(C(=O)N[C@@H]2C[C@H](c3ccc(C(=O)O)cc3)Oc3ccccc32)CCc2cc(Cl)ccc2O1 [Example 60, 4-[(2R,4R)-4-{[(2R)-6-chloro-2-methyl-3,4-dihydro-2H-1-benzopyran-2-carbonyl]amino}-3,4-dihydro-2H-1-benzopyran-2-yl]benzoic acid] | > 20000 | 2.3
COC(=O)c1ccc([C@H]2C[C@@H](NC(=O)[C@]3(C)CCc4cc(Cl)ccc4O3)c3ccccc3O2)cc1 [Example 61, methyl 4-[(2R,4R)-4-{[(2S)-6-chloro-2-methyl-3,4-dihydro-2H-1-benzopyran-2-carbonyl]amino}-3,4-dihydro-2H-1-benzopyran-2-yl]benzoate] | 5880 | 20.0
C[C@@]1(C(=O)N[C@@H]2C[C@H](c3ccc(C(=O)O)cc3)Oc3ccccc32)CCc2cc(Cl)ccc2O1 [Example 62, 4-[(2R,4R)-4-{[(2S)-6-chloro-2-methyl-3,4-dihydro-2H-1-benzopyran-2-carbonyl]amino}-3,4-dihydro-2H-1-benzopyran-2-yl]benzoic acid] | 2650 | 22.6

Next, values leading:

EC50 [nM] | Maximum % activity [%] | SMILES
280 | 28.3 | COc1ccc2c(c1)O[C@@H](c1cccc(C(=O)O)c1)C[C@H]2NC(=O)C1(c2ccc(Cl)cc2)CC1 [Example 42, 3-[(2R,4R)-4-{[1-(4-chlorophenyl)cyclopropane-1-carbonyl]amino}-7-methoxy-3,4-dihydro-2H-1-benzopyran-2-yl]benzoic acid]
280 | 39.1 | COc1ccc2c(c1)O[C@@H](c1cccc(C(=O)O)c1)C[C@H]2NC(=O)C1(c2ccc(Br)cc2)CC1 [Example 43, 3-[(2R,4R)-4-{[1-(4-bromophenyl)cyclopropane-1-carbonyl]amino}-7-methoxy-3,4-dihydro-2H-1-benzopyran-2-yl]benzoic acid]
100 | 35.3 | COc1ccc(C2(C(=O)N[C@@H]3C[C@H](c4cccc(C(=O)O)c4)Oc4cc(OC)ccc43)CC2)cc1 [Example 44, 3-[(2R,4R)-7-methoxy-4-{[1-(4-methoxyphenyl)cyclopropane-1-carbonyl]amino}-3,4-dihydro-2H-1-benzopyran-2-yl]benzoic acid]
> 20000 | 1.1 | COc1cccc2c1[C@@](C)(C(=O)N[C@@H]1C[C@H](c3cccc(C(=O)O)c3)Oc3ccccc31)CC2 [Example 46, 3-[(2R,4R)-4-{[(1S)-7-methoxy-1-methyl-2,3-dihydro-1H-indene-1-carbonyl]amino}-3,4-dihydro-2H-1-benzopyran-2-yl]benzoic acid]
1060 | 38.2 | COc1ccc2c(c1)[C@@](C)(C(=O)N[C@@H]1C[C@H](c3cccc(C(=O)O)c3)Oc3ccccc31)CC2 [Example 47, 3-[(2R,4R)-4-{[(1S)-6-methoxy-1-methyl-2,3-dihydro-1H-indene-1-carbonyl]amino}-3,4-dihydro-2H-1-benzopyran-2-yl]benzoic acid]
> 20000 | 4.5 | COc1ccc2c(c1)[C@](C)(C(=O)N[C@@H]1C[C@H](c3cccc(C(=O)O)c3)Oc3ccccc31)CC2 [Example 48, 3-[(2R,4R)-4-{[(1R)-6-methoxy-1-methyl-2,3-dihydro-1H-indene-1-carbonyl]amino}-3,4-dihydro-2H-1-benzopyran-2-yl]benzoic acid]
> 20000 | 4.9 | COc1cccc2c1[C@](C)(C(=O)N[C@@H]1C[C@H](c3cccc(C(=O)O)c3)Oc3ccccc31)CC2 [Example 50, 3-[(2R,4R)-4-{[(1R)-7-methoxy-1-methyl-2,3-dihydro-1H-indene-1-carbonyl]amino}-3,4-dihydro-2H-1-benzopyran-2-yl]benzoic acid]
> 20000 | 1.2 | C[C@@]1(C(=O)N[C@@H]2C[C@H](c3cccc(C(=O)O)c3)Oc3ccccc32)CCc2ccc(Cl)cc21 [Example 53, 3-[(2R,4R)-4-{[(1R)-6-chloro-1-methyl-2,3-dihydro-1H-indene-1-carbonyl]amino}-3,4-dihydro-2H-1-benzopyran-2-yl]benzoic acid]
> 20000 | 10.4 | C[C@]1(C(=O)N[C@@H]2C[C@H](c3cccc(C(=O)O)c3)Oc3ccccc32)CCc2ccc(Cl)cc21 [Example 54, 3-[(2R,4R)-4-{[(1S)-6-chloro-1-methyl-2,3-dihydro-1H-indene-1-carbonyl]amino}-3,4-dihydro-2H-1-benzopyran-2-yl]benzoic acid]
2710 | 49.9 | CC1(C(=O)N[C@@H]2C[C@H](c3cccc(C(=O)O)c3)Oc3ccccc32)CCc2cc(OC(F)(F)F)ccc21 (stereo partly drawn) [Example 55, 3-[(2R,4R)-4-{[1-methyl-5-(trifluoromethoxy)-2,3-dihydro-1H-indene-1-carbonyl]amino}-3,4-dihydro-2H-1-benzopyran-2-yl]benzoic acid]
1300 | 71.4 | COc1ccc2c(c1)OCC2(C)C(=O)N[C@@H]1C[C@H](c2cccc(C(=O)O)c2)Oc2ccccc21 (stereo partly drawn) [Example 56, 3-{(2R,4R)-4-[(6-methoxy-3-methyl-2,3-dihydro-1-benzofuran-3-carbonyl)amino]-3,4-dihydro-2H-1-benzopyran-2-yl}benzoic acid]
